Measured values taken from publication PMC11413853, “Discovery of VU6007496: Challenges in the Development of an M1 Positive Allosteric Modulator Backup Candidate” (ACS Chemical Neuroscience, 2024).

What was measured:
Hepatocyte MET ID, dog = type: in vitro ADME; conditions: 4-h incubation
Text: More concerning were the results generated via outsourced multispecies hepatocyte MET ID, which were drastically different than the liver S9MET ID. The extent of metabolism for VU6007496 with rat, dog, monkey and human hepatocytes was 64.7, 51.5, 63.9 and 99.5%, respectively (Figure 8). […] In human hepatocytes, PAM 11 was metabolized primarily to Metabolite A (24), the result of oxidative N-demethylation of the southern pyrazole. The other minor metabolites were oxidation on the tetrahydropyran moiety and included ring opening (Metabolite F, 25).[21]

[1] = tested on: GABAA, Flunitrazepam, Central; assay: Eurofins radioligand binding; parameters: species or system Rat; conditions: specific binding
CYP3A4 = assay: CYP induction (mRNA) in cryopreserved human hepatocytes, CYP3A4; type: in vitro ADME; conditions: three donors
Text: To advance 11 as a candidate and into IND-enabling studies, we next needed to better understand its CYP profile to minimize drug–drug interactions in the clinic. […] We were pleased to see the contribution of another CYP beyond 3A4 for the metabolism of 11.[21] In parallel, we investigated the ability of PAM 11 to induce the expression of CYP450s (measuring mRNA) in cryopreserved human hepatocytes from three separate donors.

Sodium Channel, Site 2 = assay: Eurofins radioligand binding; parameters: species or system Rat; conditions: specific binding
mouse M1 = target: T1, mouse M1 (Mus musculus, UniProt P12657); assay: Calcium mobilization assay, mouse M1 PAM; type: cell-based; conditions: PAM mode
T1 construct: expressed in transfected cells; host or cells: CHO (stated in general for all functional cell-based assays)
T1 sequence (P12657 whole entry): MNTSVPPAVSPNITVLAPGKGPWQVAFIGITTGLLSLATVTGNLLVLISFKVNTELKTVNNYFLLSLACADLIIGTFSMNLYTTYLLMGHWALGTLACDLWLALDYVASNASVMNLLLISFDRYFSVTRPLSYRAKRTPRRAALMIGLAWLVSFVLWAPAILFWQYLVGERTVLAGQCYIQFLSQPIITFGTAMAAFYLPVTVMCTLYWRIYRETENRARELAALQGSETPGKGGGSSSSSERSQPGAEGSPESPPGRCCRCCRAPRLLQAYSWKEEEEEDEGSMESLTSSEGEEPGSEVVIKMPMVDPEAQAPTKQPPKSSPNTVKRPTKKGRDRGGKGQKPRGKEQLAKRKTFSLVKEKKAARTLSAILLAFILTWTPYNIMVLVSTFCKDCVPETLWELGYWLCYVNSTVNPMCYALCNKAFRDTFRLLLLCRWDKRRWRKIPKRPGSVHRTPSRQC

Rolipram = assay: Eurofins radioligand binding; parameters: species or system Rat; conditions: specific binding
Adrenergic β1 = assay: Eurofins radioligand binding; parameters: species or system Human; conditions: specific binding
[2] = tested on: Nicotinic Acetylcholine α3β4; assay: Eurofins radioligand binding; parameters: species or system Human; conditions: specific binding
Adrenergic α2A = assay: Eurofins radioligand binding; parameters: species or system Human; conditions: specific binding
Histamine H3 = assay: Eurofins radioligand binding; parameters: species or system Human; conditions: specific binding
[3] = tested on: Nicotinic Acetylcholine α1, Bungarotoxin; assay: Eurofins radioligand binding; parameters: species or system Human; conditions: specific binding
Opiate δ1 (OP1, DOP) = assay: Eurofins radioligand binding; parameters: species or system Human; conditions: specific binding
Adenosine A2A = assay: Eurofins radioligand binding; parameters: species or system Human; conditions: specific binding
[4] = tested on: Platelet Activating Factor (PAF); assay: Eurofins radioligand binding; parameters: species or system Human; conditions: specific binding
[5] = tested on: Purinergic P2Y, Non-Selective; assay: Eurofins radioligand binding; parameters: species or system Rat; conditions: specific binding
Interleukin IL-1 R1 = assay: Eurofins radioligand binding; parameters: species or system Human; conditions: specific binding

Cn1ccc(-c2ccc(Cc3cc(C(=O)NC4CCOCC4)nc4ccn(C)c34)cc2)n1 [compound 11]
extent of metabolism, dog hepatocytes (Hepatocyte MET ID, dog): 51.5% | % Inhibition at 10 µM [1]: -3% | CYP3A4 induction (mRNA) (CYP3A4): ~21 fold | % Inhibition at 10 µM (Sodium Channel, Site 2): 19% | EC50 (mouse M1): 0.092 µM | mouse M1 PAM ACh max (mouse M1): 66% | % Inhibition at 10 µM (Rolipram): 10% | % Inhibition at 10 µM (Adrenergic β1): -14% | % Inhibition at 10 µM [2]: 6% | % Inhibition at 10 µM (Adrenergic α2A): -7% | % Inhibition at 10 µM (Histamine H3): -12% | % Inhibition at 10 µM [3]: -3% | % Inhibition at 10 µM (Opiate δ1 (OP1, DOP)): 5% | % Inhibition at 10 µM (Adenosine A2A): -11% | % Inhibition at 10 µM [4]: -13% | % Inhibition at 10 µM [5]: -9% | % Inhibition at 10 µM (Interleukin IL-1 R1): 10%
